Assay [1] has as its target T1, human Factor Xa (Homo sapiens, UniProt P00742).
T1 construct: purchased Boehringer Manheim Co., Ltd
The assay is described as follows: Factor Xa-inhibiting activity, synthetic substrate PS-2000. Conditions: Table 4; PS-2000, pH 8.5, 37° C. It counts as biochemical. The text has this:
(§1) Synthetic substrates used for testing the inhibitory activity of the inhibitors on decomposition of substrates by the enzymes were as follows. For plasmin, PS-994 (H--D--Lys(Tos)--Phe--Lys--CHA·2HCl, mfd. by NITTO BOSEKI Co., Ltd.) was used; for thrombin and trypsin, PS-915 (H--D--Phe--Pro--Arg--CHA·2HCl, mfd. by NITTO BOSEKI Co., Ltd.); for Factor Xa, PS-2000 (Z--D--Lys--(HCO)--Gly--Arg--CHA·HCl, mfd. by NITTO BOSEKI Co., Ltd.); and for kallikrein, S-2302 (H--D--Pro--Phe--Arg--pNA, mfd., by Kabi Co., Ltd.).
(§2) As plasmin, standard plasmin of Sankyo Color Test α2 -D1 Kit was used in an amount of 0.3CU/ml. As thrombin, that of Sankyo Color Test ATIII kit was used in an amount of 1.2 NIHU/ml. As trypsin, that of cord 3703 of Worthington was used in an amount of 2 μg/ml. As human Factor Xa, that of Boehringer Manheim Co., Ltd. was used in an amount of 0.25 U/ml. As human plasma kallikrein, that of Kabi Co., Ltd. was used in an amount of 0.12 U/ml. As terminating color reagents, those for Sankyo Color Test Kit were used. The reactions were carried out at 37° C. unless otherwise specified.
Each of aqueous solutions (1 ml) of the inhibitors which solutions were various in their respective concentrations was added to 0.3 ml of a buffer solution (a 150 mM aqueous sodium chloride solution containing 50 mM Tris, pH 8.5 ), and the resulting solution was heated for 5 minutes. Then, 0.1 ml of a Factor Xa solution (a 150 mM aqueous sodium chloride solution containing 50 mM Tris and 20 mM calcium chloride, pH 8.5) was added, followed by incubation for 5 minutes. Subsequently, a 5% polyvinyl pyrrobidone solution (0.1 ml) containing 10 mM PS-2000 was added, followed by incubation for 5 min. Thereafter, 2 ml of terminating color reagent was added. After standing for 10 minutes, absorbance at 700 nm was measured and IC50 was determined in the manner described above.

The target of assay [2] is plasmin (Homo sapiens, UniProt P00747). The assay is described as follows: Plasmin-inhibiting activity, synthetic substrate PS-994. It counts as biochemical. Set-up: purchased Sankyo (Color Test α2 -D1 Kit). Conditions: Table 4; PS-994, pH 7.8, 37° C.
Excerpt: as §1, §2
Each of aqueous solutions (0.1 ml) of the inhibitors which solutions were various in their respective concentrations was added to 0.4 ml of a buffer solution (a 150 mM aqueous sodium chloride solution containing 100 mM Tris, pH 7.8), and the resulting solution was heated for 5 minutes. To this solution was added 0.2 ml of plasmin solution, followed by incubation for 5 minutes, and then 0.1 ml of a PS-994 solution (10 mM) was added, and then incubated for 5 minutes. After completion of the reaction, 2.0 ml of terminating color reagent was added, and after standing for 10 minutes, absorbance at 700 nm was measured. A concentration of the inhibitor in the reaction system at which the absorbance was one-half that obtained in the absence of the inhibitor was determined as IC50.

Counter-ions that a name gives are not always drawn. Where a SMILES comes first, the peptide text is derived from it. [ ]: non-standard residue; d: D form. The star is where a group is joined. Tos = Cc1ccc(S(=O)(=O)*)cc1; Moc = COC(=O)*; For = O=C*

T1 sequence (P00742 235-488 limits assumed): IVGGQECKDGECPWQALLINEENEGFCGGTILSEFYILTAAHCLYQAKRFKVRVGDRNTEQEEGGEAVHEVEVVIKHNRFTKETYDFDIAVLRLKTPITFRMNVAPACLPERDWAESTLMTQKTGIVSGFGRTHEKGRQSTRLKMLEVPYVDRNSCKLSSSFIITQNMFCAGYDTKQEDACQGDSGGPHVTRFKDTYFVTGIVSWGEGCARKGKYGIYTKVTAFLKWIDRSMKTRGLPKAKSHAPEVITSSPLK
T1 sequence (P00742 41-179 partner limits assumed): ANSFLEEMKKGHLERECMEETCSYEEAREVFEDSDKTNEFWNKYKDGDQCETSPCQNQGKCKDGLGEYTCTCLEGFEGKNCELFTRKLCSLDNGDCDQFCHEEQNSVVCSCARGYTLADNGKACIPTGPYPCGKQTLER
Sequence of plasmin (P00747 581-810 limits assumed, species assumed): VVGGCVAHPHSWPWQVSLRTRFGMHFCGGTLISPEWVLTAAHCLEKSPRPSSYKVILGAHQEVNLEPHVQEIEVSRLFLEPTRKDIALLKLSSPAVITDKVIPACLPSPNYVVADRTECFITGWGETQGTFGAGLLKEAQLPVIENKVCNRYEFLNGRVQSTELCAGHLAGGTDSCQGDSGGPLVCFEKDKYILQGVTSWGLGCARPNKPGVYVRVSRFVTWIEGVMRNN
Sequence of plasmin (P00747 97-580 partner limits assumed, species assumed): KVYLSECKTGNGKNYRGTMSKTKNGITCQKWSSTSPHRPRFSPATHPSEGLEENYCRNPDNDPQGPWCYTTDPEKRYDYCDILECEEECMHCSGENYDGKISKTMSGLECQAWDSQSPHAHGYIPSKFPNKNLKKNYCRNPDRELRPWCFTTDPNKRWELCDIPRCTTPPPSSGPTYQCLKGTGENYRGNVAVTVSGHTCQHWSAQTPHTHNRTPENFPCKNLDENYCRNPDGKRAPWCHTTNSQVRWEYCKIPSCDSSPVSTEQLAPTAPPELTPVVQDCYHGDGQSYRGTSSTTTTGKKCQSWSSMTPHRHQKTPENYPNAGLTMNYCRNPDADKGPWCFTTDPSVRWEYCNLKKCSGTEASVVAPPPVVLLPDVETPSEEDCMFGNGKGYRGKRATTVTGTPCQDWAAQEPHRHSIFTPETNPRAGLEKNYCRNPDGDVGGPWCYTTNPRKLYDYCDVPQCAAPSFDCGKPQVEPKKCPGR

By IC50 is commonly meant the concentration needed to halve the response being measured. Read a low IC50 as inhibition by little substance. For `COC(=O)N[C@H](CCCCNS(=O)(=O)c1ccc(C)cc1)C(=O)N[C@@H](Cc1ccccc1)C(=O)N[C@H](C=O)CCCCN` [Compound 2, N-α-Methoxycarbonyl-N-ε-(p-tosyl)-D-lysyl-L-phenylalanyl-L-lysinal hydrochloride] (Moc-[dK](Tos)-Phe-Lys-aldehyde), the results for the IC50 in assay [1] and in assay [2] were 22 µM and 7.9 nM, respectively.
For `Cc1ccc(S(=O)(=O)NCCCC[C@@H](NC=O)C(=O)N[C@@H](Cc2ccccc2)C(=O)N[C@H](C=O)CCCCN)cc1` [Compound 4, N-α-Formyl-N-ε-(p-tosyl)-D-lysyl-L-phenylalanyl-L-lysinal hydrochloride] (For-[dK](Tos)-Phe-Lys-aldehyde), in that order: 85 µM and 96 nM.

Source of the values: patent publication US4883863A, “Tripeptide derivatives and antiplasmin agents containing the same” (Nitto Boseki Co., Ltd., priority 1987, dated 1989).
